Test results from patent publication US12304890B2, “R-type pyridyloxycarboxylic acid, salt and ester derivative thereof, and preparation method therefor, and herbicidal composition and application thereof” (Qingdao Kingagroot Chemical Compound Co., Ltd., priority 2018, dated 2025).

Experiments:
Assay type in all cases: in vivo
[1] = system: Digitaria sanguinalis; test: Post-emergence test experiment, Digitaria sanguinalis; conditions: 1000 g a.i./ha, 3 weeks in greenhouse, fresh weight inhibition
Outline: (§1)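 Greenhouse post-emergence spray at 2-3 leaf stage (2 wk after sowing); acetone/tween-80 formulation, methyl oleate EC synergist 1.5 L/ha, water-diluted. Plants held 3 wk, then fresh weight inhibition rate read.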

[2] = system: Monocotyledonous and dicotyledonous weed seeds and main crop seeds; test: Post-emergence test experiment, other weeds and crops (Table 4, 1000 g a.i./ha); conditions: 3 weeks in greenhouse, fresh weight inhibition
Outline: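 Growth inhibition is scored on fresh weight. Spray solutions were made in acetone with tween-80, diluted in water, plus 1.5 L/ha methyl oleate emulsible concentrate. Plants from greenhouse-grown weed and crop seeds were treated post-emergence at 2-3 leaves, 2 weeks after sowing.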

[3] = system: Echinochloa crusgalli; test: Post-emergence test experiment, Echinochloa crusgalli; conditions: 1000 g a.i./ha, 3 weeks in greenhouse, fresh weight inhibition
Outline: as §1

Structure (SMILES)	Activity level (growth inhibition rate), Digitaria sanguinalis [1]	Activity level (growth inhibition rate), Abutilon theophrasti Medic. [2]	Activity level (growth inhibition rate), Galium aparine [2]	Activity level (growth inhibition rate), Monochoria Vaginalis [2]	Activity level (growth inhibition rate), Echinochloa crusgalli [3]
CCC(C)(C)SC(=O)C(C)Oc1nc(F)c(Cl)c(N)c1Cl (stereo not drawn) [Compound 2-100]	5 (Level 5: the growth inhibition rate is greater than 85%)	5 (Level 5: the growth inhibition rate is greater than 85%)	5 (Level 5: the growth inhibition rate is greater than 85%)	5 (Level 5: the growth inhibition rate is greater than 85%)	5 (Level 5: the growth inhibition rate is greater than 85%)
CC(Oc1nc(F)c(Cl)c(N)c1Cl)C(=O)SCc1ccccc1Br (stereo not drawn) [Compound 2-321]	5 (Level 5: the growth inhibition rate is greater than 85%)	5 (Level 5: the growth inhibition rate is greater than 85%)	5 (Level 5: the growth inhibition rate is greater than 85%)	5 (Level 5: the growth inhibition rate is greater than 85%)	5 (Level 5: the growth inhibition rate is greater than 85%)
Cc1cccc(CSC(=O)C(C)Oc2nc(F)c(Cl)c(N)c2Cl)c1 (stereo not drawn) [Compound 2-305]	5 (Level 5: the growth inhibition rate is greater than 85%)	5 (Level 5: the growth inhibition rate is greater than 85%)	5 (Level 5: the growth inhibition rate is greater than 85%)	5 (Level 5: the growth inhibition rate is greater than 85%)	5 (Level 5: the growth inhibition rate is greater than 85%)
CC(C)CCCCCSC(=O)[C@@H](C)Oc1nc(F)c(Cl)c(N)c1Cl [Compound 2-160]	5 (Level 5: the growth inhibition rate is greater than 85%)	5 (Level 5: the growth inhibition rate is greater than 85%)	5 (Level 5: the growth inhibition rate is greater than 85%)	5 (Level 5: the growth inhibition rate is greater than 85%)	5 (Level 5: the growth inhibition rate is greater than 85%)
COC(=O)[C@@H](C)Oc1nc(Cl)c(Cl)c(N)c1Cl [Compound 2-31]	5 (Level 5: the growth inhibition rate is greater than 85%)	5 (Level 5: the growth inhibition rate is greater than 85%)	5 (Level 5: the growth inhibition rate is greater than 85%)	5 (Level 5: the growth inhibition rate is greater than 85%)	5 (Level 5: the growth inhibition rate is greater than 85%)
CCCCCCCCOC(=O)[C@@H](C)Oc1nc(F)c(Cl)c(N)c1Cl [Compound 2-155]	5 (Level 5: the growth inhibition rate is greater than 85%)	5 (Level 5: the growth inhibition rate is greater than 85%)	5 (Level 5: the growth inhibition rate is greater than 85%)	5 (Level 5: the growth inhibition rate is greater than 85%)	5 (Level 5: the growth inhibition rate is greater than 85%)
CC(Oc1nc(F)c(Cl)c(N)c1Cl)C(=O)SCc1cccc(F)c1 (stereo not drawn) [Compound 2-311]	5 (Level 5: the growth inhibition rate is greater than 85%)	5 (Level 5: the growth inhibition rate is greater than 85%)	5 (Level 5: the growth inhibition rate is greater than 85%)	5 (Level 5: the growth inhibition rate is greater than 85%)	5 (Level 5: the growth inhibition rate is greater than 85%)
CCC(C)(C)OC(=O)C(C)Oc1nc(F)c(Cl)c(N)c1Cl (stereo not drawn) [Compound 2-99]	5 (Level 5: the growth inhibition rate is greater than 85%)	5 (Level 5: the growth inhibition rate is greater than 85%)	5 (Level 5: the growth inhibition rate is greater than 85%)	5 (Level 5: the growth inhibition rate is greater than 85%)	5 (Level 5: the growth inhibition rate is greater than 85%)
CC(Oc1nc(F)c(Cl)c(N)c1Cl)C(=O)O.CNC (stereo not drawn) [Compound 2-7]	5 (Level 5: the growth inhibition rate is greater than 85%)	5 (Level 5: the growth inhibition rate is greater than 85%)	5 (Level 5: the growth inhibition rate is greater than 85%)	5 (Level 5: the growth inhibition rate is greater than 85%)	5 (Level 5: the growth inhibition rate is greater than 85%)
CCCCC(CC)CSC(=O)[C@@H](C)Oc1nc(F)c(Cl)c(N)c1Cl (stereo partly drawn) [Compound 2-158]	5 (Level 5: the growth inhibition rate is greater than 85%)	5 (Level 5: the growth inhibition rate is greater than 85%)	5 (Level 5: the growth inhibition rate is greater than 85%)	5 (Level 5: the growth inhibition rate is greater than 85%)	5 (Level 5: the growth inhibition rate is greater than 85%)
CCCCCCCCSC(=O)[C@@H](C)Oc1nc(F)c(Cl)c(N)c1Cl [Compound 2-156]	5 (Level 5: the growth inhibition rate is greater than 85%)	5 (Level 5: the growth inhibition rate is greater than 85%)	5 (Level 5: the growth inhibition rate is greater than 85%)	5 (Level 5: the growth inhibition rate is greater than 85%)	5 (Level 5: the growth inhibition rate is greater than 85%)
CC(Oc1nc(F)c(Cl)c(N)c1Cl)C(=O)SCc1cccc(C(F)(F)F)c1 (stereo not drawn) [Compound 2-330]	5 (Level 5: the growth inhibition rate is greater than 85%)	5 (Level 5: the growth inhibition rate is greater than 85%)	5 (Level 5: the growth inhibition rate is greater than 85%)	5 (Level 5: the growth inhibition rate is greater than 85%)	5 (Level 5: the growth inhibition rate is greater than 85%)
